Like-named read-outs stand apart in the source and are kept apart here.
Columns and labels:
[1] = target: Mcl-1 protein (UniProtKB primary accession number: Q07820) (Homo sapiens, UniProt Q07820); assay: Inhibition of Mcl-1 by fluorescence polarisation, Method 1; type: binding; details: read-out: IC50 (M) Mcl-1 FP
Outline: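 FP readout of relative binding potency. Mcl-1 5 nM final, fluorescein-labelled ligand 1 nM final; buffer 10 mM HEPES, 150 mM NaCl, 0.05% Tween 20, pH 7.4; 11-pt dilution series, 5% DMSO final.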

[2] = system: H929 multiple myeloma tumour line; assay: In vitro cytotoxicity, Microculture Tetrazolium Assay; type: cell-based; details: Homo sapiens, NCI-H929, 48 h, H929 cells, 48 hours exposure, MTT; read-out: IC50 (μM) MTT H929
Description: The cytotoxicity studies were carried out on the H929 multiple myeloma tumour line.
The cells are distributed onto microplates and exposed to the test compounds for 48 hours.

[3] = fluorescence polarisation, Method 1, or Method 2
[4] = fluorescence polarisation test, Method 2 values are underlined in the patent (underlining not visible here)

Sequence of Mcl-1 protein (Q07820 whole entry): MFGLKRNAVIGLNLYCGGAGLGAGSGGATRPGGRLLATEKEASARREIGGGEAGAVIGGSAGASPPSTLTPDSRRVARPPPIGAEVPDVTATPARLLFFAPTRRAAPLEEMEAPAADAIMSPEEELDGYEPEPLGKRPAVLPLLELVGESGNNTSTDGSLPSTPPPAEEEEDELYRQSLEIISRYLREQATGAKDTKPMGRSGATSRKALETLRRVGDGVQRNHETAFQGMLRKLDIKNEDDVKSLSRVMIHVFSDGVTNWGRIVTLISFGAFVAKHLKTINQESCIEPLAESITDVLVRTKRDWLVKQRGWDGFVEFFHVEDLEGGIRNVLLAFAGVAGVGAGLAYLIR

IC50 [1, 3] [M] | IC50 [1, 4] [M] | Compound | IC50 [2] [µM]
1.04e-09 | – | COc1ccccc1-c1nccc(COc2ccccc2CC(Oc2ncnc3sc(-c4ccc(OCc5ccnn5C)cc4)c(-c4ccc(OCCN5CCN(C)CC5)c(Cl)c4C)c23)C(=O)O)n1 [Example 771, (2R)-2-[((5Sa)-5-{3-chloro-2-methyl-4-[2-(4-methylpiperazin-1-yl)ethoxy]phenyl}-6-{4-[(1-methyl-1H-pyrazol-5-yl)methoxy]phenyl}thieno[2,3-d]pyrimidin-4-yl)oxy]-3-(2-{[2-(2-methoxyphenyl)pyrimidin-4-yl]methoxy}phenyl)propanoic acid] | 0.019
1.4e-08 | – | COc1ccc(-c2sc3ncnc(OC(Cc4ccccc4OC)C(=O)O)c3c2-c2ccc(OCCN3CCN(C)CC3)c(Cl)c2C)o1 [Example 544, (2R)-2-{[(5Sa)-5-{3-chloro-2-methyl-4-[2-(4-methylpiperazin-1-yl)ethoxy]phenyl}-6-(5-methoxyfuran-2-yl)thieno[2,3-d]pyrimidin-4-yl]oxy}-3-(2-methoxyphenyl)propanoic acid] | 0.274
– | 9e-09 | CCCCNC(=O)COc1ccccc1CC(Oc1ncnc2sc(-c3ccco3)c(-c3ccc(OCCN4CCN(C)CC4)c(Cl)c3C)c12)C(=O)O [Example 220, (2R)-3-{2-[2-(butylamino)-2-oxoethoxy]phenyl}-2-{[(5Sa)-5-{3-chloro-2-methyl-4-[2-(4-methylpiperazin-1-yl)ethoxy]phenyl}-6-(furan-2-yl)thieno[2,3-d]pyrimidin-4-yl]oxy}propanoic acid] | 0.277
4.1e-09 | – | COc1ccccc1CC(Oc1ncnc2sc(-c3cc(F)cc(Cl)c3)c(-c3ccc(OCCN4CCN(C)CC4)c(Cl)c3C)c12)C(=O)O [Example 526, (2R)-2-{[6-(3-chloro-5-fluorophenyl)-(5Sa)-5-{3-chloro-2-methyl-4-[2-(4-methylpiperazin-1-yl)ethoxy]phenyl}thieno[2,3-d]pyrimidin-4-yl]oxy}-3-(2-methoxyphenyl)propanoic acid] | 0.835
– | 1.3e-08 | COc1ccc(Cn2nccc2COc2ccccc2CC(Oc2ncnc3sc(-c4ccc(F)cc4)c(-c4ccc(OCCN5CCN(C)CC5)c(Cl)c4C)c23)C(=O)O)cc1 [Example 79, (2R)-2-{[(5Sa)-5-{3-chloro-2-methyl-4-[2-(4-methylpiperazin-1-yl)ethoxy]phenyl}-6-(4-fluorophenyl)thieno[2,3-d]pyrimidin-4-yl]oxy}-3-(2-{[1-(4-methoxybenzyl)-1H-pyrazol-5-yl]methoxy}phenyl)propanoic acid] | 0.168
– | 7.4e-09 | Cc1c(-c2c(-c3ccco3)sc3ncnc(OC(Cc4ccccc4OCc4cc(Cl)ccn4)C(=O)O)c23)ccc(OCCN2CCN(C)CC2)c1Cl [Example 222, (2R)-2-{[(5Sa)-5-{3-chloro-2-methyl-4-[2-(4-methylpiperazin-1-yl)ethoxy]phenyl}-6-(furan-2-yl)thieno[2,3-d]pyrimidin-4-yl]oxy}-3-{2-[(4-chloropyridin-2-yl)methoxy]phenyl}propanoic acid] | 0.314
– | 1.2e-08 | COc1ccccc1CC(Oc1ncnc2sc(-c3ccco3)c(-c3ccc(OCC4CCCN4C)c(Cl)c3C)c12)C(=O)O [Example 298, (2R)-2-{[(5Sa)-5-(3-chloro-2-methyl-4-{[(2S)-1-methylpyrrolidin-2-yl]methoxy}phenyl)-6-(furan-2-yl)thieno[2,3-d]pyrimidin-4-yl]oxy}-3-(2-methoxyphenyl)propanoic acid] | 1.14

Continued, compound first:

Compound | IC50 [1, 3] [M] | IC50 [1, 4] [M] | IC50 [2] [µM]
CCCCn1nccc1COc1ccccc1CC(Oc1ncnc2sc(-c3ccc(OCCN4CCOCC4)nc3)c(-c3ccc(OCCN4CCN(C)CC4)c(Cl)c3C)c12)C(=O)O [Example 621, (2R)-3-{2-[(1-butyl-1H-pyrazol-5-yl)methoxy]phenyl}-2-[((5Sa)-5-{3-chloro-2-methyl-4-[2-(4-methylpiperazin-1-yl)ethoxy]phenyl}-6-{6-[2-(morpholin-4-yl)ethoxy]pyridin-3-yl}thieno[2,3-d]pyrimidin-4-yl)oxy]propanoic acid] | 5.3e-09 | – | 0.095
Cc1c(-c2c(-c3ccc(F)cc3)sc3ncnc(OC(Cc4ccccc4OCc4ccnn4CCC(C)C)C(=O)O)c23)ccc(OCCN2CCN(C)CC2)c1Cl [Example 82, (2R)-2-{[(5Sa)-5-{3-chloro-2-methyl-4-[2-(4-methylpiperazin-1-yl)ethoxy]phenyl}-6-(4-fluorophenyl)thieno[2,3-d]pyrimidin-4-yl]oxy}-3-(2-{[1-(3-methylbutyl)-1H-pyrazol-5-yl]methoxy}phenyl)propanoic acid] | – | 5.1e-09 | 0.078
CCc1sc2ncnc(OC(Cc3ccccc3)C(=O)O)c2c1-c1ccc(OCC(=O)N2CCOCC2)c(Cl)c1C [Example 393, (2R)-2-[((5Sa)-5-{3-chloro-2-methyl-4-[2-(morpholin-4-yl)-2-oxoethoxy]phenyl}-6-ethylthieno[2,3-d]pyrimidin-4-yl)oxy]-3-phenylpropanoic acid] | 4.1e-08 | – | 16.6
Cc1c(-c2c(-c3ccco3)sc3ncnc(OC(Cc4ccccc4OCc4cocn4)C(=O)O)c23)ccc(OCCN2CCN(C)CC2)c1Cl [Example 280, (2R)-2-{[(5Sa)-5-{3-chloro-2-methyl-4-[2-(4-methylpiperazin-1-yl)ethoxy]phenyl}-6-(furan-2-yl)thieno[2,3-d]pyrimidin-4-yl]oxy}-3-[2-(1,3-oxazol-4-ylmethoxy)phenyl]propanoic acid] | – | 4e-09 | 0.071
Cc1c(-c2c(-c3ccc(F)cc3)sc3ncnc(OC(Cc4ccccc4OCc4ccnc(-c5ccc(C(F)(F)F)nc5)n4)C(=O)O)c23)ccc(OCCN2CCN(C)CC2)c1Cl [Example 109, (2R)-2-{[(5Sa)-5-{3-chloro-2-methyl-4-[2-(4-methylpiperazin-1-yl)ethoxy]phenyl}-6-(4-fluorophenyl)thieno[2,3-d]pyrimidin-4-yl]oxy}-3-[2-({2-[6-(trifluoromethyl)pyridin-3-yl]pyrimidin-4-yl}methoxy)phenyl]propanoic acid] | – | 8.4e-09 | 0.108
Cc1sccc1-c1nccc(COc2ccccc2CC(Oc2ncnc3sc(-c4ccc(F)cc4)c(-c4ccc(OCCN5CCN(C)CC5)c(Cl)c4C)c23)C(=O)O)n1 [Example 121, (2R)-2-{[(5Sa)-5-{3-chloro-2-methyl-4-[2-(4-methylpiperazin-1-yl)ethoxy]phenyl}-6-(4-fluorophenyl)thieno[2,3-d]pyrimidin-4-yl]oxy}-3-(2-{[2-(2-methylthiophen-3-yl)pyrimidin-4-yl]methoxy}phenyl)propanoic acid] | – | 5.6e-09 | 0.015
Cc1c(-c2c(-c3ccco3)sc3ncnc(OC(Cc4ccccc4OCc4ccnc(N(C)C)n4)C(=O)O)c23)ccc(OCCN2CCN(C)CC2)c1Cl [Example 251, (2R)-2-{[(5Sa)-5-{3-chloro-2-methyl-4-[2-(4-methylpiperazin-1-yl)ethoxy]phenyl}-6-(furan-2-yl)thieno[2,3-d]pyrimidin-4-yl]oxy}-3-(2-{[2-(dimethylamino)pyrimidin-4-yl]methoxy}phenyl)propanoic acid] | – | 6.3e-09 | 0.035
COCCCSc1nccc(COc2ccccc2CC(Oc2ncnc3sc(-c4ccc(F)cc4)c(-c4ccc(OCCN5CCN(C)CC5)c(Cl)c4C)c23)C(=O)O)n1 [Example 66, (2R)-2-{[(5Sa)-5-{3-chloro-2-methyl-4-[2-(4-methylpiperazin-1-yl)ethoxy]phenyl}-6-(4-fluorophenyl)thieno[2,3-d]pyrimidin-4-yl]oxy}-3-[2-({2-[(3-methoxypropyl)sulfanyl]pyrimidin-4-yl}methoxy)phenyl]propanoic acid] | – | 4.6e-09 | 0.037
CCCn1nccc1COc1ccccc1CC(Oc1ncnc2sc(-c3ccc(F)cc3)c(-c3ccc(OCCN4CCN(C)CC4)c(Cl)c3C)c12)C(=O)O [Example 81, (2R)-2-{[(5Sa)-5-{3-chloro-2-methyl-4-[2-(4-methylpiperazin-1-yl)ethoxy]phenyl}-6-(4-fluorophenyl)thieno[2,3-d]pyrimidin-4-yl]oxy}-3-{2-[(1-propyl-1H-pyrazol-5-yl)methoxy]phenyl}propanoic acid] | – | 7.6e-09 | 0.034
CCN1CCN(CCOc2ccc(-c3c(-c4ccco4)sc4ncnc(OC(Cc5ccccc5OCc5ccnc(OC)n5)C(=O)O)c34)c(C)c2Cl)CC1 [Example 670, (2R)-2-{[(5Sa)-5-{3-chloro-4-[2-(4-ethylpiperazin-1-yl)ethoxy]-2-methylphenyl}-6-(furan-2-yl)thieno[2,3-d]pyrimidin-4-yl]oxy}-3-{2-[(2-methoxypyrimidin-4-yl)methoxy]phenyl}propanoic acid] | 3.2e-09 | – | 0.027
Cc1c(-c2c(-c3ccco3)sc3ncnc(OC(Cc4ccccc4OCc4cnc(N5CCOCC5)nc4)C(=O)O)c23)ccc(OCCN2CCN(C)CC2)c1Cl [Example 273, (2R)-2-{[(5Sa)-5-{3-chloro-2-methyl-4-[2-(4-methylpiperazin-1-yl)ethoxy]phenyl}-6-(furan-2-yl)thieno[2,3-d]pyrimidin-4-yl]oxy}-3-(2-{[2-(morpholin-4-yl)pyrimidin-5-yl]methoxy}phenyl)propanoic acid] | – | 9.2e-09 | 0.905
Cc1c(-c2c(-c3ccc(F)cc3)sc3ncnc(OC(Cc4ccccc4OCc4ccnc(-c5ccc(Cl)nc5)n4)C(=O)O)c23)ccc(OCCN2CCN(C)CC2)c1Cl [Example 110, (2R)-2-{[(5Sa)-5-{3-chloro-2-methyl-4-[2-(4-methylpiperazin-1-yl)ethoxy]phenyl}-6-(4-fluorophenyl)thieno[2,3-d]pyrimidin-4-yl]oxy}-3-(2-{[2-(6-chloropyridin-3-yl)pyrimidin-4-yl]methoxy}phenyl)propanoic acid] | – | 4.3e-09 | 0.022

— patent publication US9670227B2, “Thienopyrimidine derivatives, a process for their preparation and pharmaceutical compositions containing them” (LES LABORATOIRES SERVIER, priority 2013, dated 2017)
